Experimental data reported in patent US5571524A, “Agent for curing ischemic myocardial disease” (Unitika Ltd., priority 1994, dated 1996).

Legend:
[1] = cited from earlier work
[2] = test system: rabbit mesenteric arteries; settings: R. Busse et al. 1988; cited from earlier work
[3] = Japanese Laid-Open Patent Application 3-167126; cited from earlier work
Mongrel dogs [4] = assay: Myocardial oxygen consumption (MVO2), nonischemic condition; format: in vivo; settings: for Myocardial oxygen consumption: control 9.1
Description: (§1) Mongrel dogs weighing 18-22 kg were anesthetized with pentobarbital sodium (30 mg/kg). The trachea was intubated, and the dog was ventilated with room air with oxygen. The chest was opened through the left fifth intercostal space, and the heart was suspended in a pericardial cradle. The left anterior descending coronary artery was cannulated and perfused with blood via the carotid artery through an extracorporeal bypass tube after heparinization (500 units/kg). Coronary blood flow (CBF) was measured with an electromagnetic flow probe attached to the bypass tube, and coronary perfusion pressure (CPP) was monitored at the tip of the coronary arterial cannula. A small, short collecting tube was cannulated into a small coronary vein near the center of the perfused area to sample coronary venous blood. The drained venous blood was collected in a reservoir placed at the level of the left atrium. A high fidelity of left ventricular pressure and its first derivative were measured by a micromanometer (model P-5, Konigsberg Instruments, Inc., Pasadena, Calif.) placed in the left ventricular cavity through the apex. A pair of ultrasonic crystals was placed in the center of the perfused area about 1 cm apart to measure myocardial segment length with an ultrasonic dimension gauge (5 MHz, Schuessler, Cardiff by the Sea, Calif.). End-diastolic length (EDL) was determined at the R wave of the electrocardiogram, and end-systolic length (ESL) was determined at the minimal dP/dt. Fractional shortening was calculated by (EDL-ESL)/EDL as an index of myocardial contractility of the perfused area.
After stabilization, a physiological saline solution prepared by dissolving Ap4A.4Na in physiological saline was continuously infused into the coronary artery, with the dosage thereof increased to 0.5, 1, 2, 4 and 8 μg/kg/min, and the changes in coronary blood flow were measured in order to assess the coronary blood flow increase effect of Ap4A.
Changes in myocardial oxygen consumption (MVO2) (ml/100 g/min) caused by the administration of Ap4A were measured as shown in TABLE 2.

Mongrel dogs [5] = assay: Coronary blood flow increase effect, nonischemic condition; format: in vivo; settings: for Coronary blood flow: N = 1 - 2; for coronary blood flow increase: nonischemic
Description: as §1
After stabilization, a physiological saline solution […], with the dosage thereof increased to 0.5, 1, 2, 4 and 8 μg/kg/min, and the changes in coronary blood flow were measured in order to assess the coronary blood flow increase effect of Ap4A.
8-sulfophenyltheophylline (hereinafter referred to as 8-SPT) serving as adenosine P1 receptor antagonist with a dose of 25 μg/kg/min was tested.
The above test was also repeated by replacing 8-SPT with N^G -nitro-L-arginine methyl ester (hereinafter referred to as L-NAME) serving as an endothelial-cell-induced nitric oxide (NO) synthesis inhibitor with a dose of 3 μg/kg/min(ic).
The above test was then repeated using 8-SPT and L-NAME in combination.

[6] = Japanese Laid-Open Patent Application 5-286861; cited from earlier work
coronary vessels = settings: at normal time; cited from earlier work
Mongrel dogs [7] = assay: Amelioration of myocardial ischemia: coronary blood flow, fractional shortening and perfusion pressure during factitious 1/3 blood flow; format: in vivo; settings: for Myocardial fractional shortening / Coronary blood flow / Coronary perfusion pressure: ischemia (1/3 blood flow), N = 2
Description: as §1
(§2) After stabilization, CPP was decreased with partial occlusion of the bypass tube to the left anterior descending coronary artery such that CBF decreased to one third of the control flow. The low CPP was maintained during this test.
(§3) Blood sampling from coronary veins and coronary arteries was conducted. Then the intracoronary administration of Ap4A was stopped. The lowered coronary perfusion pressure was further maintained for 10 minutes.
(§4) The above test was repeated by replacing Ap4A with adenosine with the dosage thereof being changed to 4, 8 and 16 μg/kg/min.

human platelet = settings: Leuthje and Ogiluie 1984; cited from earlier work
Mongrel dogs [8] = assay: Lactate extraction ratio and pH of venous blood during ischemia; format: in vivo; settings: ischemia (1/3 blood flow), N = 2
Description: as §1
Namely, the lactate extraction ratio was obtained by coronary arteriovenous difference in lactate concentration multiplied by 100 and divided by arterial lactate concentration.
as §2, §3, §4
As mentioned previously, in the above-mentioned experimental systems, lactate extraction ratio and pH of venous blood were measured at the time of the intracoronary administration of Ap4A and also at the time of the intracoronary administration of adenosine.

Compound: Nc1ncnc2c1ncn2[C@@H]1O[C@H](COP(=O)(O)OP(=O)(O)OP(=O)(O)OP(=O)(O)OC[C@H]2O[C@@H](n3cnc4c(N)ncnc43)[C@H](O)[C@@H]2O)[C@@H](O)[C@H]1O [Ap4A, Diadenosine 5',5"'-p^1, p^4 -tetraphosphate]
- degradation in vivo [1]: degraded in vivo to ATP and AMP, which are eventually degraded to adenosine
- vasodilating effect on rabbit mesenteric arteries [2]: vasodilating effect on rabbit mesenteric arteries
- anti-arrhythmia effect [3]: anti-arrhythmia effect
- Myocardial oxygen consumption (Mongrel dogs [4]; Ap4A 0.5 μg/kg/min): 9.9 ml/100 g/min
- Myocardial oxygen consumption (Mongrel dogs [4]; Ap4A 1 μg/kg/min): 9.0 ml/100 g/min
- Myocardial oxygen consumption (Mongrel dogs [4]; Ap4A 2 μg/kg/min): 8.7 ml/100 g/min
- Myocardial oxygen consumption (Mongrel dogs [4]; Ap4A 4 μg/kg/min): 8.7 ml/100 g/min
- Myocardial oxygen consumption (Mongrel dogs [4]; Ap4A 8 μg/kg/min): 9.5 ml/100 g/min
- myocardial oxygen consumption (MVO2) change (Mongrel dogs [4]; Ap4A 0.5 to 8 μg/kg/min): neither largely increased nor decreased
- coronary blood flow increase effect of Ap4A in presence of 8-SPT (Mongrel dogs [5]; 8-SPT 25 μg/kg/min): partially inhibited
- coronary blood flow increase effect of Ap4A in presence of 8-SPT and L-NAME (Mongrel dogs [5]; 8-SPT and L-NAME in combination): not completely inhibited
- coronary blood flow increase effect of Ap4A in presence of L-NAME (Mongrel dogs [5]; L-NAME 3 μg/kg/min (ic)): only slightly inhibited
- Coronary blood flow (Mongrel dogs [5]; Untreated (no inhibitor), Ap4A 0.5 μg/kg/min intracoronary, control 93.7): 104.1 ml/100 g/min
- Coronary blood flow (Mongrel dogs [5]; Untreated (no inhibitor), Ap4A 1 μg/kg/min intracoronary, control 93.7): 122.2 ml/100 g/min
- Coronary blood flow (Mongrel dogs [5]; Untreated (no inhibitor), Ap4A 2 μg/kg/min intracoronary, control 93.7): 137.6 ml/100 g/min
- Coronary blood flow (Mongrel dogs [5]; Untreated (no inhibitor), Ap4A 4 μg/kg/min intracoronary, control 93.7): 158.9 ml/100 g/min
- Coronary blood flow (Mongrel dogs [5]; Untreated (no inhibitor), Ap4A 8 μg/kg/min intracoronary, control 93.7): 202.2 ml/100 g/min
- coronary blood flow increase (Mongrel dogs [5]; intracoronary 0.5 to 8 μg/kg/min): significantly increasing the coronary blood flow dose-dependently
- coronary blood flow increase (Mongrel dogs [5]; intravenous administration): This effect was also observed
- Coronary blood flow (Mongrel dogs [5]; with 8-SPT 25 μg/kg/min, Ap4A 0.5 μg/kg/min, control 97.0): 98.6 ml/100 g/min
- Coronary blood flow (Mongrel dogs [5]; with 8-SPT 25 μg/kg/min, Ap4A 1 μg/kg/min, control 97.0): 96.8 ml/100 g/min
- Coronary blood flow (Mongrel dogs [5]; with 8-SPT 25 μg/kg/min, Ap4A 2 μg/kg/min, control 97.0): 106.1 ml/100 g/min
- Coronary blood flow (Mongrel dogs [5]; with 8-SPT 25 μg/kg/min, Ap4A 4 μg/kg/min, control 97.0): 117.0 ml/100 g/min
- Coronary blood flow (Mongrel dogs [5]; with 8-SPT 25 μg/kg/min, Ap4A 8 μg/kg/min, control 97.0): 124.5 ml/100 g/min
- Coronary blood flow (Mongrel dogs [5]; with 8-SPT + L-NAME, Ap4A 0.5 μg/kg/min, control 97.1): 97.1 ml/100 g/min
- Coronary blood flow (Mongrel dogs [5]; with 8-SPT + L-NAME, Ap4A 1 μg/kg/min, control 97.1): 108.6 ml/100 g/min
- Coronary blood flow (Mongrel dogs [5]; with 8-SPT + L-NAME, Ap4A 2 μg/kg/min, control 97.1): 102.9 ml/100 g/min
- Coronary blood flow (Mongrel dogs [5]; with 8-SPT + L-NAME, Ap4A 4 μg/kg/min, control 97.1): 114.3 ml/100 g/min
- Coronary blood flow (Mongrel dogs [5]; with 8-SPT + L-NAME, Ap4A 8 μg/kg/min, control 97.1): 120.0 ml/100 g/min
- Coronary blood flow (Mongrel dogs [5]; with L-NAME 3 μg/kg/min (ic), Ap4A 0.5 μg/kg/min, control 90.3): 100.0 ml/100 g/min
- Coronary blood flow (Mongrel dogs [5]; with L-NAME 3 μg/kg/min (ic), Ap4A 1 μg/kg/min, control 90.3): 119.4 ml/100 g/min
- Coronary blood flow (Mongrel dogs [5]; with L-NAME 3 μg/kg/min (ic), Ap4A 2 μg/kg/min, control 90.3): 122.6 ml/100 g/min
- Coronary blood flow (Mongrel dogs [5]; with L-NAME 3 μg/kg/min (ic), Ap4A 4 μg/kg/min, control 90.3): 151.6 ml/100 g/min
- Coronary blood flow (Mongrel dogs [5]; with L-NAME 3 μg/kg/min (ic), Ap4A 8 μg/kg/min, control 90.3): 219.4 ml/100 g/min
- deliberated hypotensive effect [6]: deliberated hypotensive effect
- vasodilating effect on coronary vessels (coronary vessels): vasodilating effect on coronary vessels at normal time
- Myocardial fractional shortening (Mongrel dogs [7]; Ap4A 4 μg/kg/min intracoronary 10 minutes, control 24.7, 1/3 control 4.9): 11.5%
- Coronary blood flow (Mongrel dogs [7]; Ap4A 4 μg/kg/min intracoronary 10 minutes, control 90.5, 1/3 control 30.4): 48.2 ml/100 g/min
- Coronary perfusion pressure (Mongrel dogs [7]; Ap4A 4 μg/kg/min intracoronary 10 minutes, control 104, 1/3 control 54): 54 mmHg
- Myocardial fractional shortening (Mongrel dogs [7]; Ap4A administration stopped, 1/3 control 4.9): 4.8%
- Coronary blood flow (Mongrel dogs [7]; Ap4A administration stopped, 1/3 control 30.4): 31.9 ml/100 g/min
- Coronary perfusion pressure (Mongrel dogs [7]; Ap4A administration stopped, 1/3 control 54): 54 mmHg
- prevention of decrease in myocardial fractional shortening (Mongrel dogs [7]; ischemia, Ap4A 4 μg/kg/min): significantly preventing a decrease in myocardial fractional shortening
- amelioration effect on myocardial ischemia (Mongrel dogs [7]; mongrel dogs in a state of excessive ischemia): noticeable amelioration effect on myocardial ischemia
- ADP-induced human platelet aggregation inhibitory effect (human platelet): ADP-induced human platelet aggregation inhibitory effect
- pH of venous blood (Mongrel dogs [8]; Ap4A 4 μg/kg/min intracoronary, control 7.39, 1/3 control 7.23): 7.29
- Lactate extraction ratio (Mongrel dogs [8]; Ap4A 4 μg/kg/min intracoronary, control 28.3, 1/3 control -39.8): -15.8%
- pH of venous blood (Mongrel dogs [8]; Ap4A administration stopped, 1/3 control 7.23): 7.19
- Lactate extraction ratio (Mongrel dogs [8]; Ap4A administration stopped, 1/3 control -39.8): -48.6%
